Results: patent US7786124B2, “Heterocyclic substituted pyridine compounds with CXCR3 antagonist activity” (Schering Corporation, priority 2006, dated 2010)
Like-named read-outs stand apart in the source and are kept apart here.

Target: T1, human CXCR3 (N-delta 4) (Homo sapiens, UniProt P49682)
T1 construct: CD8 leader; Flag tag; expressed in transfected cells; membrane preparation
T1 sequence (P49682 5-368 limits assumed): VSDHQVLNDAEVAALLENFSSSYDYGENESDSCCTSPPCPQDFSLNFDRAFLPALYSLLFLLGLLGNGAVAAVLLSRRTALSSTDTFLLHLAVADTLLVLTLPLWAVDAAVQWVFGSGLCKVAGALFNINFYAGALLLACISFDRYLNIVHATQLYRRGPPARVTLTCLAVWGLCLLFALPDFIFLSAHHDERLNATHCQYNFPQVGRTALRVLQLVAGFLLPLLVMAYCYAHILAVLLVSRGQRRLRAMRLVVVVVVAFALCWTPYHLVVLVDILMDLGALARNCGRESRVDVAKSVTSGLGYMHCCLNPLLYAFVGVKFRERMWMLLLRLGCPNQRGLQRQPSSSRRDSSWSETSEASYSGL
Experiment: Human CXCR3 (N-delta 4) scintillation proximity binding assay ([125I] IP-10 displacement)
Excerpt: The inventive compounds can readily be evaluated to determine activity at The CXCR3 receptors by known methods, such as, for example, Development of Human CXCR3 (N-delta 4) Binding Assay.
Cloning and Expression of Human CXCR3 (N-Delta 4):
The DNA encoding human CXCR3 was cloned by PCR using human genomic DNA (Promega, Madison, Wis.) as a template. The PCR primers were designed based on the published sequence of human orphan receptor GPR9 (1) with incorporated restriction sites, a Kozak consensus sequence, CD8 leader and Flag tag. The PCR product was subcloned into the mammalian expression vector pME18Sneo, a derivative of the SR-alpha expression vector (designated as pME18Sneo-hCXCR3 (N-delta 4).
IL-3-dependent mouse pro-B cells Ba/F3 were transfected by electroporation in 0.4 ml Dulbecco's PBS containing 4×10^6 cells with 20 μg of pME18Sneo-hCXCR3 (N-delta 4) plasmid DNA. Cells were pulsed at 400 Volts, 100 OHMs, 960 μFd. The transfected cells were under selection with 1 mg/ml G418 (Life Technologies, Gaithersburg, Md.). G418-resistant Ba/F3 clones were screened for CXCR3 expression by specific binding of [^125I] IP-10 (NEN Life Science Products, Boston, Mass.).
Preparation of Ba/F3-hCXCR3 (N-Delta 4) Membranes
Ba/F3 cells expressing human CXCR3 (N-delta 4) were pelleted and resuspended in the lysis buffer containing 10 mM HEPES, pH 7.5 and Complete® protease inhibitors (1 tablet per 100 ml) (Boehringer Mannheim, Indianapolis, Ind.) at a cell density of 20×10^6 cells per ml. After 5 minutes incubation on ice, cells were transferred to 4639 cell disruption bomb (Parr Instrument, Moline, Ill.) and applied with 1,500 psi of nitrogen for 30 minutes on ice. Large cellular debris was removed by centrifugation at 1,000×g. Cell membrane in the supernatant was sedimented at 100,000×g. The membrane was resuspended in the lysis buffer supplemented with 10% sucrose and stored at −80° C. Total protein concentration of the membrane was determined by BCA method from Pierce (Rockford, Ill.).
Human CXCR3 (N-Delta 4) Scintillation Proximity Assay (SPA)
For each assay point, 2 μg of membrane was preincubated for 1 hr with 300 μg wheat germ agglutinin (WGA) coated SPA beads (Amersham, Arlington Heights, Ill.) in the binding buffer (50 mM HEPES, 1 mM CaCl2, 5 mM MgCl2, 125 mM NaCl, 0.002% NaN3, 1.0% BSA) at room temperature. The beads were spun down, washed once, resuspended in the binding buffer and transferred to a 96-well Isoplate (Wallac, Gaithersburg, Md.). 25 pM of [^125I] IP-10 with tested compounds in a series of titration were added to start the reaction. After 3 hr reaction at room temperature, the amount of [^125I]; IP-10 bound to the SPA beads was determined with a Wallac 1450 Microbeta counter.

[1] = Human CXCR3, Table 2, read-out: Ki
[2] = human CXCR3, Table 1, read-out: Ki rating

Ki [1] [nM]	Ki [2] [nM]	Ki (human CXCR3, read-out: Ki) [nM]	SMILES
0.4	< 25		CCNc1nnc(-c2ccc(N3C[C@H](CC)N(C4CCN(Cc5ccc(Cl)cc5)CC4)C[C@H]3C)c(C)n2)o1 [Compound 2]
	< 25		CC[C@H]1CN(c2ccc(-c3nnc(N)o3)nc2C)CCN1C1CCN(C(=O)c2ccc(F)c(F)c2)CC1 [Compound 9]
	< 25		CC[C@H]1CN(c2ccc(-c3nnc(N)o3)nc2C)CCN1C1CCN(C(=O)c2ccc(Cl)c(F)c2)CC1 [Compound 7]
	< 25		CCNc1nnc(-c2ccc(N3CCN(C4CCN(C(=O)c5ccc(Cl)c(F)c5)CC4)[C@@H](CC)C3)c(C)n2)o1 [Compound 5]
	25 to 100		CCNc1nnc(-c2ccc(N3C[C@H](CC)N(C4CCN(C(=O)c5ccc(Cl)c(F)c5)CC4)C[C@H]3C)c(C)n2)o1 [Compound 10]
	< 25	0.2	CCNc1nnc(-c2ccc(N3CCN(C4CCN(Cc5ccc(Cl)cc5)CC4)[C@@H](CC)C3)c(C)n2)o1 [Compound 1]
	25 to 100		CC[C@H]1CN(c2ccc(-c3nnc(N)o3)nc2C)[C@H](C)CN1C1CCN(C(=O)c2ccc(Cl)c(F)c2)CC1 [Compound 13]
	< 25		CC[C@H]1CN(c2ccc(-c3nnc[nH]3)nc2C)CCN1C1CCN(C(=O)c2ccc(Cl)c(F)c2)CC1 [Compound 6]
	< 25		CCNc1nnc(-c2ccc(N3CCN(C4CCN(C(=O)c5ccc(F)c(F)c5)CC4)[C@@H](CC)C3)c(C)n2)o1 [Compound 8]
	< 25		CCNc1nnc(-c2ccc(N3CCN(C4CCN(C(=O)c5ccc(Cl)cc5)CC4)[C@@H](CC)C3)c(C)n2)o1 [Compound 4]
	25 to 100		CCNc1nnc(-c2ccc(N3C[C@H](CC)N(C4CCN(C(=O)c5ccc(Cl)cc5)CC4)C[C@H]3C)c(C)n2)o1 [Compound 11]
	25 to 100		CC[C@H]1CN(c2ccc(-c3nnc(N)o3)nc2C)[C@H](C)CN1C1CCN(C(=O)c2ccc(Cl)cc2)CC1 [Compound 12]
0.3	< 25		CC[C@H]1CN(c2ccc(-c3nnc(N)o3)nc2C)CCN1C1CCN(Cc2ccc(Cl)cc2)CC1 [Compound 14]
0.5	< 25		CC[C@H]1CN(c2ccc(-c3nnc(N)o3)nc2C)CCN1C1CCN(Cc2ccc(OC(F)(F)F)cc2)CC1 [Compound 3]
2.4	< 25		CC[C@H]1CN(c2ccc(-c3nnc(N)o3)nc2C)CCN1C1CCN(C(=O)c2ccc(Cl)cc2)CC1 [Compound 15]
